These results are taken from patent US20090076044A1, “VEGFR INHIBITORS CONTAINING A ZINC BINDING MOIETY” (priority 2007, published 2009).

Molecules are shown by their SMILES.

Common to all, as to type: biochemical
One assay relates to HDAC. Nature of the assay: HDAC fluorimetric assay kit (HeLa nuclear extract). The procedure:
(b) An In Vitro Assay which Determines the Ability of a Test Compound to Inhibit HDAC Enzymatic Activity.
HDAC inhibitors were screened using an HDAC fluorimetric assay kit (AK-500, Biomol, Plymouth Meeting, Pa.). Test compounds were dissolved in dimethylsulphoxide (DMSO) to give a 20 mM working stock concentration. Fluorescence was measured on a WALLAC Victor 2 plate reader and reported as relative fluorescence units (RFU). Data were plotted using GraphPad Prism (v4.0a) and IC50's calculated using a sigmoidal dose response curve fitting algorithm. Each assay was setup as follows: Defrosted all kit components and kept on ice until use. Diluted HeLa nuclear extract 1:29 in Assay Buffer (50 mM Tris/Cl, pH 8.0, 137 mM NaCl, 2.7 mM KCl, 1 mM MgCl2). Prepared dilutions of Trichostatin A (TSA, positive control) and tested compounds in assay buffer (5× of final concentration). Diluted Fluor de Lys™ Substrate in assay buffer to 100 uM (50 fold=2× final). Diluted Fluor de Lys™ developer concentrate 20-fold (e.g. 50 μl plus 950 μl Assay Buffer) in cold assay buffer. Second, diluted the 0.2 mM Trichostatin A 100-fold in the 1× Developer (e.g. 10 μl in 1 ml; final Trichostatin A concentration in the 1× Developer=2 μM; final concentration after addition to HDAC/Substrate reaction=1 μM). Added Assay buffer, diluted trichostatin A or test inhibitor to appropriate wells of the microtiter plate. Added diluted HeLa extract or other HDAC sample to all wells except for negative controls. Allowed diluted Fluor de Lys™ Substrate and the samples in the microtiter plate to equilibrate to assay temperature (e.g. 25 or 37° C. Initiated HDAC reactions by adding diluted substrate (25 μl) to each well and mixing thoroughly. Allowed HDAC reactions to proceed for 1 hour and then stopped them by addition of Fluor de Lys™ Developer (50 μl). Incubated plate at room temperature (25° C.) for 10-15 min. Read samples in a microtiter-plate reading fluorimeter capable of excitation at a wavelength in the range 350-380 nm and detection of emitted light in the range 440-460 nm.

The next assay has as its target T1, human EGFR (Homo sapiens, UniProt P00533).
T1 construct: human EGFR (His672-Ala1210); purchased Cell Signaling Technologies; host or cells: baculovirus expression system
Nature of the assay: EGFR kinase assay (HTScan EGF Receptor Kinase Assay Kit, DELFIA). The following applies: 200 μM ATP. The method, then: (e) An In Vitro Assay which Determines the Ability of a Test Compound to Inhibit EGFR Kinase.
The ability of compounds to inhibit receptor kinase (EGFR) activity was assayed using HTScan™ EGF Receptor Kinase Assay Kits (Cell Signaling Technologies, Danvers, Mass.). EGFR tyrosine kinase was obtained as GST-kinase fusion protein which was produced using a baculovirus expression system with a construct expressing human EGFR (His672-Ala1210) (GenBank Accession No. NM_005228) with an amino-terminal GST tag. The protein was purified by one-step affinity chromatography using glutathione-agarose. An anti-phosphotyrosine monoclonal antibody, P-Tyr-100, was used to detect phosphorylation of biotinylated substrate peptides (EGFR), Biotin-PTP1B (Tyr66). Enzymatic activity was tested in 60 mM HEPES, 5 mM MgCl2 5 mM MnCl2 200 μM ATP, 1.25 mM DTT, 3 μM Na3VO4, 1.5 mM peptide, and 50 ng EGF Receptor Kinase. Bound antibody was detected using the DELFIA system (PerkinElmer, Wellesley, Mass.) consisting of DELFIA® Europium-labeled Anti-mouse IgG (PerkinElmer, #AD0124), DELFIA® Enhancement Solution (PerkinElmer, #1244-105), and a DELFIA® Streptavidin coated, 96-well Plate (PerkinElmer, AAAND-0005). Fluorescence was measured on a WALLAC Victor 2 plate reader and reported as relative fluorescence units (RFU). Data were plotted using GraphPad Prism (v4.0a) and IC50's calculated using a sigmoidal dose response curve fitting algorithm.
Test compounds were dissolved in dimethylsulfoxide (DMSO) to give a 20 mM working stock concentration. Each assay was setup as follows: Added 100 μl of 10 mM ATP to 1.25 ml 6 mM substrate peptide. Diluted the mixture with dH2O to 2.5 ml to make 2×ATP/substrate cocktail ([ATP]=[…], [substrate]=3 mM). Immediately transfer enzyme from −80° C. to ice. Allowed enzyme to thaw on ice. Microcentrifuged briefly at 4° C. to bring liquid to the bottom of the vial. Returned immediately to ice. Added 10 μl of DTT (1.25 mM) to 2.5 ml of 4× HTScan™ Tyrosine Kinase Buffer (240 mM HEPES pH 7.5, 20 mM MgCl2, 20 mM MnCl, 12 mM NaVO3) to make DTT/Kinase buffer. Transfer 1.25 ml of DTT/Kinase buffer to enzyme tube to make 4× reaction cocktail ([enzyme]=4 ng/μL in 4× reaction cocktail). Incubated 12.5 μl of the 4× reaction cocktail with 12.5 μl/well of prediluted compound of interest (usually around 10 μM) for 5 minutes at room temperature. Added 25 μl of 2×ATP/substrate cocktail to 25 μl/well preincubated reaction cocktail/compound. Incubated reaction plate at room temperature for 30 minutes. Added 50 μl/well Stop Buffer (50 mM EDTA, pH 8) to stop the reaction. Transferred 25 μl of each reaction and 75 μl dH2O/well to a 96-well streptavidin-coated plate and incubated at room temperature for 60 minutes. Washed three times with 200 μl/well PBS/T (PBS, 0.05% Tween-20). Diluted primary antibody, Phospho-Tyrosine mAb (P-Tyr-100), 1:1000 in PBS/T with 1% bovine serum albumin (BSA). Added 100 μl/well primary antibody. Incubated at room temperature for 60 minutes. Washed three times with 200 μl/well PBS/T. Diluted Europium labeled anti-mouse IgG 1:500 in PBS/T with 1% BSA. Added 100 μl/well diluted antibody. Incubated at room temperature for 30 minutes. Washed five times with 200 μl/well PBS/T. Added 100 μl/well DELFIA® Enhancement Solution. Incubated at room temperature for 5 minutes. Detected 615 nm fluorescence emission with appropriate Time-Resolved Plate Reader.

The target in the next assay is T2, human VEGFR2 (Homo sapiens, UniProt P35968).
T2 construct: kinase domain (amino acids 790 to end) fragment; 6xHis (N); made in house; host or cells: Sf21 insect cells (baculovirus)
Kind of assay: VEGFR2/KDR radioisotope kinase assay. The following applies: 100 μM ATP; read-out: VEGFR2 IC50. The method, then: (a) An In Vitro Assay which-Determines the Ability of a Test Compound to Inhibit a Receptor Tyrosine Kinase.
The ability of compounds to inhibit receptor kinase (VEGFR2 and PDGFR-beta) activity was assayed using standard radioisotope assay for kinase. […] The proteins were purified using Ni2+/NTA agarose affinity column to purity
>85% as determined by coomassie blue-stained SDS-PAGE gel. For VEGFR2/KDR assay, p33 ATP tracers were incubated with purified recombinant VEGFR2 kinase to monitor the enzyme activity. In this assay, reactions were carried out in the presence of 0.1 mg/ml VEGFR2 kinase and 0.33 mg/ml myelin basic protein. The reaction was carried out at 30° C. for 120 minutes in a final assay condition contained 50 mM Tris-HCl, pH 7.5, 300 mM NaCl, 0.1 mM EGTA, 0.03% Brij 35, 270 mM sucrose, 1 mM benzamidine, 0.2 mM PMSF, 0.1% 2-mercaptoethanol and 100 μM ATP. An equal volume of 25% TCA was added to stop the reaction and precipitate the labeled proteins. Precipitated proteins were trapped onto glass fiber B filterplates and excess unlabeled p33 ATP was washed off. The plates were allowed to air-dry prior to the addition of 30 uL/well of Packard Microscint 20. The amount of incorporated isotope was measured using a Perkin Elmer TopCount plate reader. Different concentrations of compounds were added to reaction to assess the activity of compounds to inhibit VEGFR2 kinase. IC50 was calculated using Prism software with sigmoidal dose-response curve fitting.

T1 sequence (P00533 672-1210): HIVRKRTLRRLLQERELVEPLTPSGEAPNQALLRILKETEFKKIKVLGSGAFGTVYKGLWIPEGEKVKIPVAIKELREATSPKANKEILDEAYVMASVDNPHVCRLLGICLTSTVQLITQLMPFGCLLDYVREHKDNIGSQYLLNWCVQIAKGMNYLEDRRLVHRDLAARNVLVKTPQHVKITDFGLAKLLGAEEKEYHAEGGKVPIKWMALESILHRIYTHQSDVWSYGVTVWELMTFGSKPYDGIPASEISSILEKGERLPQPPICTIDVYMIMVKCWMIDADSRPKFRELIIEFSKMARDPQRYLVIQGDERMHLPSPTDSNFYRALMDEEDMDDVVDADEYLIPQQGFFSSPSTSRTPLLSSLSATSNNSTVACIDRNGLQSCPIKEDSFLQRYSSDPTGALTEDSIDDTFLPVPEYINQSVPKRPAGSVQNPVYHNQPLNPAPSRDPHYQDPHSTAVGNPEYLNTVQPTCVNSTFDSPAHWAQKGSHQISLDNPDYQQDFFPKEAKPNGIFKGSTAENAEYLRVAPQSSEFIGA
T2 sequence (P35968 790-1356 limits assumed): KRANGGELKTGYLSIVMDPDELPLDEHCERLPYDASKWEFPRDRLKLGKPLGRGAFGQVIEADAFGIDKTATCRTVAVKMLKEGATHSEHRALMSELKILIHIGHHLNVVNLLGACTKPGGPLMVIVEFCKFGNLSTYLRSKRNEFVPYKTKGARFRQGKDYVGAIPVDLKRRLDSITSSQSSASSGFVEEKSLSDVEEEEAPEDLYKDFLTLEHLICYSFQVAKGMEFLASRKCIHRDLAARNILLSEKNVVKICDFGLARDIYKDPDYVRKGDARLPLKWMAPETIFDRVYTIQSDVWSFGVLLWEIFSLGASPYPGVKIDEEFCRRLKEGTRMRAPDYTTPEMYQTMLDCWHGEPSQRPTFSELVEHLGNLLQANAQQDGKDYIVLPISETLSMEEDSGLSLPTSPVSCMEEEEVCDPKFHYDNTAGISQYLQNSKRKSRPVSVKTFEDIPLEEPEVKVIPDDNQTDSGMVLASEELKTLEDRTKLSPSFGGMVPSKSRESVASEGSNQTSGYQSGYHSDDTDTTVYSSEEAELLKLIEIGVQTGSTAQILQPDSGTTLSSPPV

On to `COc1cc2c(Nc3ccc4[nH]c(C)cc4c3F)ncnc2cc1OCCCCC(=O)NO` [Compound 12, 5-(4-(4-fluoro-2-methyl-1H-indol-5-ylamino)-6-methoxyquinazolin-7-yloxy)-N-hydroxypentanamide], for which the IC50 in the assay on HDAC and against human EGFR was 0.1 to 1 µM throughout.
Consider `COc1cc2c(Nc3ccc4occc4c3)ncnc2cc1OCCCCCCC(=O)NO` [Compound 6, 7-(4-(benzofuran-5-ylamino)-6-methoxyquinazolin-7-yloxy)-N-hydroxyheptanamide], for which the values for the IC50 in the assay on HDAC and at human VEGFR2 were less than 0.1 µM and 1 to 10 µM, respectively.
With `COc1cc2c(Oc3ccc4[nH]c(C)cc4c3F)ncnc2cc1OCCCCC(=O)NO` [Compound 9, 5-(4-(4-fluoro-2-methyl-1H-indol-5-yloxy)-6-methoxyquinazolin-7-yloxy)-N-hydroxypentanamide], the IC50 – broadly, the point on the concentration scale where inhibition reaches its midpoint – in the assay with HDAC lay in the range of 0.1 to 1 µM.
